Experimental findings from patent US11414424B2, “Cardiac sarcomere inhibitors” (Cytokinetics, Inc., priority 2018, dated 2022) are described below.

The subject of this experiment is bovine cardiac myofibrils. Briefly: Myofibril assay: PK/LDH-coupled steady-state ATPase activity of skinned bovine cardiac myofibrils. The format is biochemical. Particulars: Ca2+ activating to 75% of maximal rate. In outline:
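Steady-state ATPase of detergent-skinned bovine left-ventricular myofibrils (1 mg/mL), PK/LDH-coupled NADH read at 340 nm, in PIPES/MgCl2 buffer pH 6.8 with 50 μM ATP, 0.6 mM EGTA and CaCl2 set for 50% or 75% activation. Inhibition of activity measured.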
`O=C1[C@H](C2CCC2)N(Cc2ccc(C(F)(F)F)cc2)C(=O)CN1c1ncc(Cl)cc1F` [Compound 555, (S)-1-(5-chloro-3-fluoro-pyridin-2-yl)-3-cyclobutyl-4-(4-(trifluoromethyl)-benzyl)piperazine-2,5-dione]: the “CDMF75 IC15” value amounted to 0.9 µM. Under `CC(=O)N1CC2(C1)C(=O)N(c1ncc(Cl)cc1F)CC(=O)N2[C@@H](C)c1ccc(Cl)cc1` [Compound 556, (S)-2-acetyl-8-(5-chloro-3-fluoropyridin-2-yl)-5-(1-(4-chlorophenyl)ethyl)-2,5,8-triazaspiro[3.5]nonane-6,9-dione] stands 2.7 µM; under `C[C@@H](c1ccc(Cl)cc1)N1C(=O)CN(c2ncc(Cl)cc2F)C(=O)C12COC2` [Compound 558], 7.04 µM. `C[C@@H](c1ccc(Cl)cc1)N1C(=O)CN(c2ncc(Cl)cc2F)C(=O)C12CN(C(=O)NC1CC1)C2` [Compound 559, (S)-8-(5-chloro-3-fluoro-pyridin-2-yl)-5-(1-(4-chlorophenyl)ethyl)-N-cyclopropyl-6,9-dioxo-2,5,8-triazaspiro[3.5]-nonane-2-carboxamide]: the “CDMF75 IC15” value turned out to be 25.1 µM. On to `CCNC(=O)N1CC2(C1)C(=O)N(c1ncc(Cl)cc1F)CC(=O)N2[C@@H](C)c1ccc(Cl)cc1` [Compound 560, (S)-8-(5-chloro-3-fluoro-pyridin-2-yl)-5-(1-(4-chlorophenyl)ethyl)-N-ethyl-6,9-dioxo-2,5,8-triazaspiro[3.5]nonane-2-carboxamide], for which the “CDMF75 IC15” value came to 8.6 µM. For the compound `CC(C)NC(=O)N1CC2(C1)C(=O)N(c1ncc(Cl)cc1F)CC(=O)N2[C@@H](C)c1ccc(Cl)cc1` [Compound 561, (S)-8-(5-chloro-3-fluoro-pyridin-2-yl)-5-(1-(4-chlorophenyl)ethyl)-N-isopropyl-6,9-dioxo-2,5,8-triazaspiro[3.5]nonane-2-carboxamide], the “CDMF75 IC15” value was 19.8 µM. Take `C[C@@H](c1ccc(Cl)cc1)N1C(=O)CN(c2ncc(Cl)cc2F)C(=O)C12CN(C(=O)NC1CCOCC1)C2` [Compound 562, (S)-8-(5-chloro-3-fluoro-pyridin-2-yl)-5-(1-(4-chlorophenyl)ethyl)-6,9-dioxo-N-(tetrahydro-2H-pyran-4-yl)-2,5,8-triazaspiro[3.5]nonane-2-carboxamide]: the “CDMF75 IC15” value came out at 29.0 µM. In the case of `CNC(=O)N1CC2(C1)C(=O)N(c1ncc(Cl)cc1F)CC(=O)N2[C@@H](C)c1ccc(Cl)cc1` [Compound 563, (S)-8-(5-chloro-3-fluoro-pyridin-2-yl)-5-(1-(4-chlorophenyl)ethyl)-N-methyl-6,9-dioxo-2,5,8-triazaspiro[3.5]nonane-2-carboxamide], the “CDMF75 IC15” value is 2.2 µM. Take `CC(=O)N1CC2(C1)C(=O)N(c1ncc(C(F)F)cc1F)CC(=O)N2[C@@H](C)c1ccc(Cl)cc1` [Compound 564, (S)-2-acetyl-5-(1-(4-chlorophenyl)ethyl)-8-(5-(difluoromethyl)-3-fluoropyridin-2-yl)-2,5,8-triazaspiro[3.5]nonane-6,9-dione]: the “CDMF75 IC15” value is 13.0 µM. Turning to `CC(=O)N1CC2(C1)C(=O)N(c1ncc(C(F)(F)F)cc1F)CC(=O)N2[C@@H](C)c1ccc(Cl)cc1` [Compound 565, (S)-2-acetyl-5-(1-(4-chlorophenyl)ethyl)-8-(3-fluoro-5-(trifluoromethyl)-pyridin-2-yl)-2,5,8-triazaspiro[3.5]nonane-6,9-dione], the “CDMF75 IC15” value turned out to be 17.8 µM. `C[C@@H](c1ccc(Cl)cc1)N1C(=O)CN(c2ncc(Cl)cc2F)C(=O)C12CN(CC(F)F)C2` [Compound 566, (S)-8-(5-chloro-3-fluoro-pyridin-2-yl)-5-(1-(4-chlorophenyl)ethyl)-2-(2,2-difluoroethyl)-2,5,8-triazaspiro[3.5]nonane-6,9-dione]: the “CDMF75 IC15” value was found to be 4.0 µM.

For `COC(=O)N1CC2(C1)C(=O)N(c1ncc(Cl)cc1F)CC(=O)N2[C@@H](C)c1ccc(Cl)cc1` [Compound 567, methyl (S)-8-(5-chloro-3-fluoropyridin-2-yl)-5-(1-(4-chlorophenyl)ethyl)-6,9-dioxo-2,5,8-triazaspiro-[3.5]nonane-2-carboxylate], the “CDMF75 IC15” value was 1.2 µM. As for `C[C@@H](c1ccc(Cl)cc1)N1C(=O)CN(c2ncc(Cl)cc2F)C(=O)C12CN(C=O)C2` [Compound 568, (S)-8-(5-chloro-3-fluoro-pyridin-2-yl)-5-(1-(4-chlorophenyl)ethyl)-6,9-dioxo-2,5,8-triazaspiro-[3.5]nonane-2-carbaldehyde], the “CDMF75 IC15” value was 1.2 µM. Regarding `C[C@@H](c1ccc(Cl)cc1)N1C(=O)CN(c2ncc(Cl)cc2F)C(=O)C12CN(C(=O)OCC(F)F)C2` [Compound 569, 2,2-difluoroethyl (S)-8-(5-chloro-3-fluoropyridin-2-yl)-5-(1-(4-chlorophenyl)-ethyl)-6,9-dioxo-2,5,8-triazaspiro[3.5]nonane-2-carboxylate], the “CDMF75 IC15” value turned out to be 2.6 µM. With `CC(=O)N1CC2(C1)C(=O)N(c1ncc(Cl)cc1F)CC(=O)N2[C@@H](C)c1ccc(C(F)(F)F)cc1` [Compound 570, (S)-2-acetyl-8-(5-chloro-3-fluoropyridin-2-yl)-5-(1-(4-(trifluoromethyl)phenyl)-ethyl)-2,5,8-triazaspiro-[3.5]nonane-6,9-dione], the “CDMF75 IC15” value was determined as 2.2 µM. For the compound `CC(=O)N1CC2(C1)C(=O)N(c1ncc(Br)cc1F)CC(=O)N2[C@@H](C)c1ccc(C(F)(F)F)cc1` [Compound 571, (S)-2-acetyl-8-(5-bromo-3-fluoropyridin-2-yl)-5-(1-(4-(trifluoromethyl)phenyl)-ethyl)-2,5,8-triazaspiro-[3.5]nonane-6,9-dione], the “CDMF75 IC15” value amounted to 2.0 µM. As for `CC(=O)N1CCC2(CC1)C(=O)N(c1ncc(Cl)cc1F)CC(=O)N2Cc1ccc(C(F)(F)F)cc1` [Compound 572, 9-acetyl-4-(5-chloro-3-fluoropyridin-2-yl)-1-(4-(trifluoromethyl)benzyl)-1,4,9-triazaspiro[5.5]-undecane-2,5-dione], the “CDMF75 IC15” value is 7.4 µM.

As for `CC1(CO)C(=O)N(c2ncc(Cl)cc2F)CC(=O)N1Cc1ccc(C(F)(F)F)cc1` (centres unmarked) [Compound 573, 1-(5-chloro-3-fluoropyridin-2-yl)-3-(hydroxymethyl)-3-methyl-4-(4-(trifluoro-methyl)benzyl)piperazine-2,5-dione], the “CDMF75 IC15” value was found to be 6.5 µM. For `O=C1CN(c2ncc(Cl)cc2F)C(=O)C2(CC(F)C2)N1Cc1ccc(C(F)(F)F)cc1` (centres unmarked) [Compound 574, 8-(5-chloro-3-fluoropyridin-2-yl)-2-fluoro-5-(4-(trifluoromethyl)benzyl)-5,8-diazaspiro[3.5]nonane-6,9-dione], the “CDMF75 IC15” value was 0.3 µM. As for `O=C1CN(c2ncc(Cl)cc2F)C(=O)C2(COC2)N1Cc1ccc(Cl)cc1` [Compound 575, 8-(5-chloro-3-fluoropyridin-2-yl)-5-(4-chlorobenzyl)-2-oxa-5,8-diazaspiro[3.5]nonane-6,9-dione], the “CDMF75 IC15” value was 1.5 µM. Take `CC1(C)C(=O)N(c2ncc(Cl)cc2F)CC(=O)N1Cc1ccc(Cl)cc1` [Compound 576, 1-(5-chloro-3-fluoropyridin-2-yl)-4-(4-chlorobenzyl)-3,3-dimethylpiperazine-2,5-dione]: the “CDMF75 IC15” value is 2.2 µM. Turning to `O=C1CN(c2ncc(Cl)cc2F)C(=O)C2(CC2)N1Cc1ccc(Cl)cc1` [Compound 577, 7-(5-chloro-3-fluoropyridin-2-yl)-4-(4-chlorobenzyl)-4,7-diazaspiro[2.5]octane-5,8-dione], the “CDMF75 IC15” value came to 0.9 µM. As to `CNC(=O)N1CC2(C1)C(=O)N(c1ncc(Cl)cc1F)CC(=O)N2[C@@H](C)c1ccc(C(F)(F)F)cc1` [Compound 592, (S)-8-(5-chloro-3-fluoro-pyridin-2-yl)-N-methyl-6,9-dioxo-5-(1-(4-(trifluoromethyl)phenyl)-ethyl)-2,5,8-triazaspiro-[3.5]nonane-2-carboxamide], the “CDMF75 IC15” value is 1.3 µM. As to `C[C@@H](c1ccc(C(F)(F)F)cc1)N1C(=O)CN(c2ncc(Cl)cc2F)C(=O)C12CN(CC(F)F)C2` [Compound 593, (S)-8-(5-chloro-3-fluoro-pyridin-2-yl)-2-(2,2-difluoroethyl)-5-(l-(4-(trifluoromethyl)phenyl)-ethyl)-2,5,8-triazaspiro-[3.5]nonane-6,9-dione], the “CDMF75 IC15” value was determined as 2.3 µM.

Regarding `CSCCC1C(=O)N(c2ncc(Cl)cc2F)CC(=O)N1Cc1ccc(C(F)(F)F)cc1` (centres unmarked) [Compound 610, 1-(5-chloro-3-fluoropyridin-2-yl)-3-(2-(methylthio)-ethyl)-4-(4-(trifluoro-methyl)-benzyl)piperazine-2,5-dione], the “CDMF75 IC15” value was found to be 1.7 µM. As to `CS(=O)(=O)CCC1C(=O)N(c2ncc(Cl)cc2F)CC(=O)N1Cc1ccc(C(F)(F)F)cc1` (centres unmarked) [Compound 612, 1-(5-chloro-3-fluoropyridin-2-yl)-3-(2-(methylsulfonyl)-ethyl)-4-(4-(trifluoro-methyl)benzyl)piperazine-2,5-dione], the “CDMF75 IC15” value turned out to be 13.6 µM. With `COC(=O)N1CC2(C1)C(=O)N(c1ncc(Cl)cc1F)CC(=O)N2[C@@H](C)c1ccc(C(F)(F)F)cc1` [Compound 615, methyl (S)-8-(5-chloro-3-fluoropyridin-2-yl)-6,9-dioxo-5-(1-(4-(trifluoro-methyl)phenyl)ethyl)-2,5,8-triazaspiro[3.5]-nonane-2-carboxylate], the “CDMF75 IC15” value is 1.3 µM. `C[C@H](c1ccc(Cl)cc1)N1C(=O)CN(c2ncc(Cl)cc2F)C(=O)C12CC2` [Compound 616, (R)-7-(5-chloro-3-fluoro-pyridin-2-yl)-4-(1-(4-chlorophenyl)ethyl)-4,7-diazaspiro[2.5]octane-5,8-dione]: the “CDMF75 IC15” value was 11.85 µM.

Consider `C[C@@H](c1ccc(C(F)(F)F)cc1)N1C(=O)CN(c2ncc(Cl)cc2F)C(=O)C12CN(C=O)C2` [Compound 620, (S)-8-(5-chloro-3-fluoro-pyridin-2-yl)-6,9-dioxo-5-(1-(4-(trifluoromethyl)-phenyl)ethyl)-2,5,8-triazaspiro[3.5]nonane-2-carbaldehyde], for which the “CDMF75 IC15” value amounted to 1.8 µM.
